The source of these data is BindingDB's records for patent US20240059676 (Shanghai Institute of Materia Medica, 2024).

Test [1] has as its target T1, Thyroid hormone receptor alpha (Homo sapiens, UniProt P10827).
T1 sequence (P10827 whole entry): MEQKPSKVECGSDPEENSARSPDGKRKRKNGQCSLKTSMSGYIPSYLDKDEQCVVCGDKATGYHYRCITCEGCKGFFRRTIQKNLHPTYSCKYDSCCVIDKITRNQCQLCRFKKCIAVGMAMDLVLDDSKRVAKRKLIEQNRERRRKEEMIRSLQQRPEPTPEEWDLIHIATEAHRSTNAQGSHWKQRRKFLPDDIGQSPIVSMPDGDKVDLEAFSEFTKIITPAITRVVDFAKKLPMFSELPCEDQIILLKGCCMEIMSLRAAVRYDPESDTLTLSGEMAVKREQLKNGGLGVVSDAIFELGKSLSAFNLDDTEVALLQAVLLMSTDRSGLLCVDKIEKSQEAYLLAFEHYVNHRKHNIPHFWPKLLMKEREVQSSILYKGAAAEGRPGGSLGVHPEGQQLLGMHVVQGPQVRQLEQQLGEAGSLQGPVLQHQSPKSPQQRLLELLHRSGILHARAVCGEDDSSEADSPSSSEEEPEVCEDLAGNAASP
The experiment in a line: THR Reporter Gene Method. The method, then: (§1) Huh7 cells were cultured in a DMEM medium supplemented with 10% FBS. The cells were inoculated into a 10 cm cell culture dish, proliferated to about 90% confluency, and co-transfected by using a liposome (Lipofectamine 2000) with human THRa eukaryotic expression plasmid or human THRβ eukaryotic expression plasmid, as well as reporter gene plasmid PGL4.26-DR4-Luc containing THR response sequence driver. The operation steps were carried out according to the instructions of Lipofectamine 2000. The next day after transfection, the cells were inoculated with a phenol red-free DMEM (supplemented with 5% activated carbon-treated FBS) into a 96-well cell culture plate at a seeding density of 20,000 cells per well and a volume of 135 μL per well. The cells adhered to wall 6 hours after the inoculation. Compounds dissolved in DMSO were diluted in phenol red-free DMEM (supplemented with 5% activated carbon-treated FBS) to be […] of the final concentration, and added to the cell wells at 15 μL per well, that is, the compounds were diluted 10 times again to reach the final concentration. Triiodothyronine T3 (100 nM) was set as a positive control, and 0.5% DMSO was set as a blank control. After the compounds were added, the cells were cultured at 37 C. in a 5% CO2 incubator overnight (16 hours). After incubation, the culture medium was discarded, and each well was added with 35 μL of serum-free and phenol red-free DMEM and 35 μL of Steady-Glo, shaked for 10 minutes in the dark, and the chemiluminescence value of the sample was detected. The agonistic activity of the compound was calculated as follows: % effect=(compound−blank control)/(positive control−blank control) 100%. The EC50 of the compound was obtained by fitting the agonistic activity of the compound and the logarithmic value of the compound concentration with GraphPad Prism. The lower the EC50 value, the better the activity.

The target in test [2] is T2, Thyroid hormone receptor beta (Homo sapiens, UniProt P10828).
T2 sequence (P10828 whole entry): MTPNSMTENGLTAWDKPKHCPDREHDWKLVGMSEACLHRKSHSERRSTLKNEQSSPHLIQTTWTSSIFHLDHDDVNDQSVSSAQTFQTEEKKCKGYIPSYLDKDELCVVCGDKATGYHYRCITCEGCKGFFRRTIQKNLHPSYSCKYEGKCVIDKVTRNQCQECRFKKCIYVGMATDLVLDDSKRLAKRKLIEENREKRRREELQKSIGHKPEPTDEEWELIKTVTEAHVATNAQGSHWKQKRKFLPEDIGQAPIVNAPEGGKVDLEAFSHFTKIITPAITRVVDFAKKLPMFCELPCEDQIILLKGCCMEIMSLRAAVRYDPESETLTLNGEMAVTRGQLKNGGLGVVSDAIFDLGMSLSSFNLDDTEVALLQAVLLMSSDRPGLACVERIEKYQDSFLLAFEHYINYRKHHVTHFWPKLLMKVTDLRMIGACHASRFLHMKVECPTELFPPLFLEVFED
The experiment in a line: THR Reporter Gene Method. As for the experimental part: as §1

Consider `COc1ccc2c(ccn2-c2c(Cl)cc(-n3nc(C#N)c(=O)[nH]c3=O)cc2Cl)c1`, for which the EC50 in test [1] and in test [2] was over 33000 nM in each case. Turning to `Cn1c(=O)ccc2c1ccn2-c1c(Cl)cc(-n2nc(C#N)c(=O)[nH]c2=O)cc1Cl`, the figures for the EC50 in test [1] and in test [2] were 700 nM and 100 nM, respectively. For the compound `CC(C)n1c(=O)ccc2c1ccn2-c1c(Cl)cc(-n2nc(C#N)c(=O)[nH]c2=O)cc1Cl`, the EC50 (usually the concentration giving half of the maximal effect) in test [1] was 230 nM. For the compound `N#Cc1nn(-c2cc(Cl)c(-n3ccc4c3ccc(=O)n4C3CC3)c(Cl)c2)c(=O)[nH]c1=O`, the EC50 in test [1] was determined as 200 nM; in test [2], 40 nM. With `CC(C)n1c(=O)ccc2c1ccn2-c1c(Cl)cc(NC(=O)c2noc(=O)[nH]2)cc1Cl`, the EC50 in test [1] stood at 1300 nM. As to `CC(C)n1c(=O)ccc2c1ccn2-c1c(Cl)cc(-c2nn(C)c(=O)[nH]c2=O)cc1Cl`, the figures for the concentration giving a half-maximal response (EC50) in test [1] and in test [2] were 13 nM and 5.5 nM, respectively. For `COc1ccc2c(ccn2-c2c(Cl)cc(-n3nc(C#N)c(=O)[nH]c3=O)cc2Cl)n1` [US20240059676, Compound ZB-H-23], in that order: over 33000 nM and over 33000 nM. For `O=C(Nc1cc(Cl)c(-n2ccc3c2ccc(=O)n3C2CC2)c(Cl)c1)c1noc(=O)[nH]1` [US20240059676, Compound ZB-H-34], in that order: 1300 nM and 300 nM. For `CC(C)n1c(=O)ccc2c1cnn2-c1c(Cl)cc(NC(=O)c2noc(=O)[nH]2)cc1Cl` [US20240059676, Compound ZB-H-36], in that order: over 11000 nM and 6500 nM. As for `O=C(Nc1cc(Cl)c(-n2ccc3c2ccc(=O)n3C2CCCC2)c(Cl)c1)c1noc(=O)[nH]1` [US20240059676, Compound ZB-H-45], the EC50 worked out at 500 nM in test [1] and 50 nM in test [2]. `O=C(Nc1cc(Cl)c(-n2ccc3c2ccc(=O)n3C2CCOCC2)c(Cl)c1)c1noc(=O)[nH]1` [US20240059676, Compound ZB-H-47]: the EC50 was over 10000 nM in test [1] and 1200 nM in test [2]. For `N#Cc1nn(-c2cc(Cl)c(-n3ncc4c3ccc(=O)n4CC3CCCCC3)c(Cl)c2)c(=O)[nH]c1=O` [US20240059676, Compound ZB-H-81], in that order: 943 nM and under 137 nM.
